This passage reports EC50 and Emax results from patent US20240368120A1 (Terns Pharmaceuticals, Inc., priority 2023, published 2024).

For this assay, the target named is T1, human GLP-1R receptor (Homo sapiens, UniProt P43220).
T1 construct: expressed in transfected cells
Nature of the assay: GLP-1R low expression cell assay (cAMP TR-FRET, CHO-K1_hGLP-1Rlow_clone10 cells). The class given is cell-based. The note with it: for EC50: cAMP TR-FRET, 30 min at 25° C.; for Emax: maximum activation relative to control GLP-1 peptide agonist. An outline of the steps: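 Readout is cAMP TR-FRET after 30 min compound stimulation at 25 °C of a low-GLP-1R-expressing CHO-K1 clone (1,000 cells/well), with 10-point 3-fold serial dilutions. Percent activation versus a control GLP-1 peptide, from duplicates, was Hill-fitted to give EC50.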

T1 sequence (P43220 24-463): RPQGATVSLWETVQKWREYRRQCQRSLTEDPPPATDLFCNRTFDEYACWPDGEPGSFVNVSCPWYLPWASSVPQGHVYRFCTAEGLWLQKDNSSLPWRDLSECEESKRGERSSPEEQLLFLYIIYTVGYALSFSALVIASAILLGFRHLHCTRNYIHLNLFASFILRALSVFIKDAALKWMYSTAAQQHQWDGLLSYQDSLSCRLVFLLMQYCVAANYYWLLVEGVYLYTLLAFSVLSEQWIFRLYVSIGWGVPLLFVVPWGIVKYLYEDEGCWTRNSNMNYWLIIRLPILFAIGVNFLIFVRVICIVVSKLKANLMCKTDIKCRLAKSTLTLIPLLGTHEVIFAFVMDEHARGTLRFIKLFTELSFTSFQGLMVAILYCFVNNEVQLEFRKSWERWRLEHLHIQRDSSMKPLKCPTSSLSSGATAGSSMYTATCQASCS

As usually defined, the EC50 is the concentration giving half of the maximal effect. Higher therefore signals lower potency in that assay. Broadly, the Emax is the greatest response seen or fitted, relative to the assay's reference. The molecule `Cn1c(CN2CCC(c3cccc(OCc4ccc(Cl)cc4F)c3)CC2)nc2c(OC(F)F)cc(NCC(=O)O)cc21` [Compound 264, (2-((4-(3-((4-chloro-2-fluorobenzyl)oxy)phenyl)piperidin-1-yl)methyl)-4-(difluoromethoxy)-1-methyl-1H-benzo[d]imidazol-6-yl)glycine] registered an EC50 greater than 1000 nM and a maximal effect (Emax) of 25 to 50%.

Consider `CCOc1cc(C(=O)O)cc2c1nc(CN1CCC(c3cccc4c3O[C@H](c3ccc(Cl)cc3F)CO4)CC1)n2C` [Compound 265, (R)-2-((4-(3-(4-chloro-2-fluorophenyl)-2,3-dihydrobenzo[b][1,4]dioxin-5-yl)piperidin-1-yl)methyl)-4-ethoxy-1-methyl-1H-benzo[d]imidazole-6-carboxylic acid], for which the EC50 lay within 10 to 100 nM and the Emax is greater than 85%.

`CCOc1cc(C(=O)O)cc2c1nc(CN1CCC(c3cccc4c3O[C@@H](c3ccc(Cl)cc3F)CO4)CC1)n2C` [Compound 266, (S)-2-((4-(3-(4-chloro-2-fluorophenyl)-2,3-dihydrobenzo[b][1,4]dioxin-5-yl)piperidin-1-yl)methyl)-4-ethoxy-1-methyl-1H-benzo[d]imidazole-6-carboxylic acid] displayed an EC50 of less than 10 nM and an Emax greater than 85%.

Molecule `COc1cc(C(=O)O)cc2c1nc(CN1CCC(c3cccc4c3O[C@H](c3ccc(Cl)cc3F)CO4)CC1)n2C` [Compound 267, (R)-2-((4-(3-(4-Chloro-2-fluorophenyl)-2,3-dihydrobenzo[b][1,4]dioxin-5-yl)piperidin-1-yl)methyl)-4-methoxy-1-methyl-1H-benzo[d]imidazole-6-carboxylic acid] yielded an EC50 of 100 to 1000 nM and an Emax greater than 85%.

Consider `COc1cc(C(=O)O)cc2c1nc(CN1CCC(c3cccc4c3O[C@@H](c3ccc(Cl)cc3F)CO4)CC1)n2C` [Compound 268, (S)-2-((4-(3-(4-Chloro-2-fluorophenyl)-2,3-dihydrobenzo[b][1,4]dioxin-5-yl)piperidin-1-yl)methyl)-4-methoxy-1-methyl-1H-benzo[d]imidazole-6-carboxylic acid], for which the EC50 is less than 10 nM and the Emax was greater than 85%.

In turn, `CCOc1cc(C(=O)O)cc2c1nc(CN1CCC(c3cccc4c3OC[C@@H](c3ccc(Cl)cc3F)O4)CC1)n2C` [Compound 269, (R)-2-((4-(2-(4-chloro-2-fluorophenyl)-2,3-dihydrobenzo[b][1,4]dioxin-5-yl)piperidin-1-yl)methyl)-4-ethoxy-1-methyl-1H-benzo[d]imidazole-6-carboxylic acid] came in with an EC50 of 100 to 1000 nM and an Emax greater than 85%.

The molecule `CCOc1cc(C(=O)O)cc2c1nc(CN1CCC(c3cccc4c3OC[C@H](c3ccc(Cl)cc3F)O4)CC1)n2C` [Compound 270, (S)-2-((4-(2-(4-Chloro-2-fluorophenyl)-2,3-dihydrobenzo[b][1,4]dioxin-5-yl)piperidin-1-yl)methyl)-4-ethoxy-1-methyl-1H-benzo[d]imidazole-6-carboxylic acid] returned an EC50 of 10 to 100 nM and an Emax greater than 85%.

As for `COc1cc(C(=O)O)cc2c1nc(CN1CCC(c3cccc4c3OC[C@@H](c3ccc(Cl)cc3F)O4)CC1)n2C` [Compound 271, (R)-2-((4-(2-(4-Chloro-2-fluorophenyl)-2,3-dihydrobenzo[b][1,4]dioxin-5-yl)piperidin-1-yl)methyl)-4-methoxy-1-methyl-1H-benzo[d]imidazole-6-carboxylic acid], the EC50 was in the range of 100 to 1000 nM and the Emax fell in the range of 50 to 85%.

As to `COc1cc(C(=O)O)cc2c1nc(CN1CCC(c3cccc(OCc4cc(F)c(Cl)cc4F)n3)CC1)n2C` [Compound 272, 2-((4-(6-((4-Chloro-2,5-difluorobenzyl)oxy)pyridin-2-yl)piperidin-1-yl)methyl)-4-methoxy-1-methyl-1H-benzo[d]imidazole-6-carboxylic acid], the EC50 was less than 10 nM and the Emax is greater than 85%.
